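48-hour exposure; five concentrations; linearly interpolated endpoints. TGI marks complete inhibition of growth.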
Columns and labels:
Assay in all cases: DTP human tumour cell line panel, 48 h
M19-MEL melanoma = system: M19-MEL melanoma
KM20L2 colon = system: KM20L2 colon
DMS 114 small cell lung = system: DMS 114 small cell lung
SF-539 CNS = system: SF-539 CNS
SF-268 CNS = system: SF-268 CNS
HOP-18 NSCLC = system: HOP-18 NSCLC
NCI-H460 lung = system: NCI-H460 lung
OVCAR-4 ovarian = system: OVCAR-4 ovarian
SK-MEL-28 melanoma = system: SK-MEL-28 melanoma
SW-620 colon = system: SW-620 colon
NCI-H23 lung = system: NCI-H23 lung
NCI-H226 lung = system: NCI-H226 lung
K-562 leukemia = system: K-562 leukemia
HCT-15 colon = system: HCT-15 colon
XF 498 CNS = system: XF 498 CNS
HCT-116 colon = system: HCT-116 colon
U251 CNS = system: U251 CNS
IGROV1 ovarian = system: IGROV1 ovarian
MALME-3M melanoma = system: MALME-3M melanoma
HOP-92 NSCLC = system: HOP-92 NSCLC
HOP-62 NSCLC = system: HOP-62 NSCLC
A549 NSCLC = system: A549 NSCLC
UO-31 renal = system: UO-31 renal
SNB-19 CNS = system: SNB-19 CNS
786-0 renal = system: 786-0 renal
LXFL 529 NSCLC = system: LXFL 529 NSCLC
UACC-62 melanoma = system: UACC-62 melanoma
DLD-1 colon = system: DLD-1 colon
SF-295 CNS = system: SF-295 CNS
DMS 273 small cell lung = system: DMS 273 small cell lung
A498 renal = system: A498 renal
TK-10 renal = system: TK-10 renal
HL-60(TB) leukemia = system: HL-60(TB) leukemia
NCI-H522 lung = system: NCI-H522 lung
CCRF-CEM leukemia = system: CCRF-CEM leukemia
OVCAR-3 ovarian = system: OVCAR-3 ovarian
ACHN renal = system: ACHN renal
HT29 colon = system: HT29 colon
RXF-631 renal = system: RXF-631 renal
SNB-75 CNS = system: SNB-75 CNS
COLO 205 colon = system: COLO 205 colon
OVCAR-8 ovarian = system: OVCAR-8 ovarian
OVCAR-5 ovarian = system: OVCAR-5 ovarian
SK-OV-3 ovarian = system: SK-OV-3 ovarian
SK-MEL-2 melanoma = system: SK-MEL-2 melanoma
SK-MEL-5 melanoma = system: SK-MEL-5 melanoma
UACC-257 melanoma = system: UACC-257 melanoma
SN12C renal = system: SN12C renal
SNB-78 CNS = system: SNB-78 CNS
KM12 colon = system: KM12 colon
EKVX NSCLC = system: EKVX NSCLC
HCC-2998 colon = system: HCC-2998 colon
M14 melanoma = system: M14 melanoma
LOX IMVI melanoma = system: LOX IMVI melanoma
RXF 393 renal = system: RXF 393 renal
MOLT-4 leukemia = system: MOLT-4 leukemia
RPMI-8226 leukemia = system: RPMI-8226 leukemia
CAKI-1 renal = system: CAKI-1 renal

COc1c(O)ccc(/C=N/NC(=S)NCOCCOC(C)=O)c1OC
TGI (M19-MEL melanoma): > 100 µM | TGI (KM20L2 colon): > 100 µM | TGI (DMS 114 small cell lung): > 100 µM | TGI (SF-539 CNS): > 100 µM | TGI (SF-268 CNS): > 100 µM | TGI (HOP-18 NSCLC): > 100 µM | TGI (NCI-H460 lung): > 100 µM | TGI (OVCAR-4 ovarian): > 100 µM | TGI (SK-MEL-28 melanoma): > 100 µM | TGI (SW-620 colon): > 100 µM | TGI (NCI-H23 lung): > 100 µM | TGI (NCI-H226 lung): > 100 µM | TGI (K-562 leukemia): > 100 µM | TGI (HCT-15 colon): > 100 µM | TGI (XF 498 CNS): > 100 µM | TGI (HCT-116 colon): > 100 µM | TGI (U251 CNS): > 100 µM | TGI (IGROV1 ovarian): > 100 µM | TGI (MALME-3M melanoma): > 100 µM | TGI (HOP-92 NSCLC): > 100 µM | TGI (HOP-62 NSCLC): > 100 µM | TGI (A549 NSCLC): > 100 µM | TGI (UO-31 renal): > 100 µM | TGI (SNB-19 CNS): > 100 µM | TGI (786-0 renal): > 100 µM | TGI (LXFL 529 NSCLC): > 100 µM | TGI (UACC-62 melanoma): > 100 µM | TGI (DLD-1 colon): > 100 µM | TGI (SF-295 CNS): > 100 µM | TGI (DMS 273 small cell lung): > 100 µM | TGI (A498 renal): > 100 µM | TGI (TK-10 renal): > 100 µM | TGI (HL-60(TB) leukemia): > 100 µM | TGI (NCI-H522 lung): > 100 µM | TGI (CCRF-CEM leukemia): > 100 µM | TGI (OVCAR-3 ovarian): > 100 µM | TGI (ACHN renal): > 100 µM | TGI (HT29 colon): > 100 µM | TGI (RXF-631 renal): > 100 µM | TGI (SNB-75 CNS): > 100 µM | TGI (COLO 205 colon): > 100 µM | TGI (OVCAR-8 ovarian): > 100 µM | TGI (OVCAR-5 ovarian): > 100 µM | TGI (SK-OV-3 ovarian): > 100 µM | TGI (SK-MEL-2 melanoma): > 100 µM | TGI (SK-MEL-5 melanoma): > 100 µM | TGI (UACC-257 melanoma): > 100 µM | TGI (SN12C renal): > 100 µM | TGI (SNB-78 CNS): > 100 µM | TGI (KM12 colon): > 100 µM | TGI (EKVX NSCLC): > 100 µM | TGI (HCC-2998 colon): > 100 µM | TGI (M14 melanoma): > 100 µM | TGI (LOX IMVI melanoma): > 100 µM | TGI (RXF 393 renal): > 100 µM

O=C(OCc1ccccc1)N1N=NC2C3CC(OCc4ccccc4)(OCc4ccccc4)C(O3)C21 (stereo unspecified)
TGI (M19-MEL melanoma): 77.6 µM | TGI (KM20L2 colon): > 100 µM | TGI (DMS 114 small cell lung): 53.1 µM | TGI (SF-539 CNS): > 100 µM | TGI (SF-268 CNS): 87.7 µM | TGI (HOP-18 NSCLC): 94 µM | TGI (NCI-H460 lung): > 100 µM | TGI (OVCAR-4 ovarian): > 100 µM | TGI (SK-MEL-28 melanoma): 55.1 µM | TGI (SW-620 colon): 80.5 µM | TGI (NCI-H23 lung): 38.9 µM | TGI (NCI-H226 lung): 41.8 µM | TGI (K-562 leukemia): 73.6 µM | TGI (HCT-15 colon): > 100 µM | TGI (XF 498 CNS): 53.4 µM | TGI (U251 CNS): > 100 µM | TGI (IGROV1 ovarian): > 100 µM | TGI (MALME-3M melanoma): 43.1 µM | TGI (HOP-92 NSCLC): 43.9 µM | TGI (HOP-62 NSCLC): > 100 µM | TGI (MOLT-4 leukemia): 60.7 µM | TGI (A549 NSCLC): > 100 µM | TGI (UO-31 renal): 28.4 µM | TGI (786-0 renal): > 100 µM | TGI (LXFL 529 NSCLC): > 100 µM | TGI (UACC-62 melanoma): 61.4 µM | TGI (DLD-1 colon): > 100 µM | TGI (RPMI-8226 leukemia): > 100 µM | TGI (SF-295 CNS): > 100 µM | TGI (DMS 273 small cell lung): 94.9 µM | TGI (A498 renal): > 100 µM | TGI (HL-60(TB) leukemia): 32.6 µM | TGI (CCRF-CEM leukemia): > 100 µM | TGI (OVCAR-3 ovarian): 59.6 µM | TGI (ACHN renal): > 100 µM | TGI (HT29 colon): > 100 µM | TGI (RXF-631 renal): > 100 µM | TGI (SNB-75 CNS): 82.4 µM | TGI (COLO 205 colon): 63 µM | TGI (OVCAR-5 ovarian): 70.4 µM | TGI (SK-OV-3 ovarian): > 100 µM | TGI (SK-MEL-2 melanoma): 33 µM | TGI (UACC-257 melanoma): 41.4 µM | TGI (SN12C renal): > 100 µM | TGI (SNB-78 CNS): > 100 µM | TGI (CAKI-1 renal): > 100 µM | TGI (KM12 colon): > 100 µM | TGI (HCC-2998 colon): 83.2 µM | TGI (M14 melanoma): > 100 µM | TGI (LOX IMVI melanoma): 42.8 µM | TGI (RXF 393 renal): 35.6 µM

Source: PubChem BioAssay (NCI)
